Results from patent publication US20110207144A1, “IN VITRO SCREENING ASSAYS” (priority 2009, published 2011).

Tested on: Human Umbilical Vein Endothelial Cell (HUVEC)
Experiment: HUVEC vasculogenesis/angiogenesis assay (HUVEC co-cultured with human fibroblasts, CD31 labeling of vessels)
Type: cell-based
Settings: for all three vessel parameters relative to the control wells: 11 days, p<0.05, one way ANOVA
Method: Studies were conducted to determine the effects of anti-LOXL2 antibody AB0023 in an in vitro vasculogenesis/angiogenesis assay. For this purpose, a dose range of AB0023 was tested alongside VEGF (an angiogenesis promoter), suramin (an angiogenesis inhibitor) and media alone in a HUVECs based in vitro system. The assay was run for 11 days with media changes on days 1, 4, 7 and 9. After 11 days, wells were fixed with 70% ethanol and vessels were tested for expression of CD31, an endothelial marker. Images of 4 random fields per well were taken and the number of branch points, number of vessels and total vessel length was calculated for each well using a specialist software analysis package.
At this point (day 1), fresh endothelial cell growth medium containing the test item and controls, as detailed in Table 1, was added to wells at 0.5 ml per well. Test item and controls were added in duplicate or triplicate according to Table 1, and media-only added in triplicate acted as baseline endothelial growth control. The plate was then cultured at 37° C. and 5% CO2. On days 4, 7 and 9 the medium was removed from all wells and carefully replaced with 0.5 ml of fresh medium containing the test item and controls as detailed in Table 1. On day 11, the plates were fixed and labeled for CD31 as detailed below. On each day of the experiment the plate was visualized using an inverted microscope to ensure normal growth cells and no contamination.
After 11 days, plates were fixed by carefully aspirating medium from wells, washed with 1 ml PBS per well, and then 1 ml ice cold 70% ethanol was added for 30 minutes at room temperature. Fixative was then carefully removed and the wells were incubated with 0.5 ml mouse anti-human CD31 antibody diluted 1:400 in PBS containing 1% BSA and incubated for 60 minutes at 37° C. Wells were then washed three times with 1 ml PBS followed by incubation with 0.5 ml goat anti-mouse IgG alkaline phosphatase conjugated secondary antibody diluted 1:500 in PBS containing 1% BSA for 60 minutes at 37° C. Wells were washed a further three times with 1 ml PBS prior to incubation with 0.5 ml freshly prepared and filtered BCIP/NBT substrate for 10 minutes at 37° C. Wells were then carefully washed three times with 1 ml distilled water and left to air dry overnight.
Digital images of each well were obtained using a Nikon Coolpix camera on a Leica inverted microscope at 10× magnification. Four random fields per well were imaged, producing 96 images in total. Images were then converted to BMP files and imported into an image analysis package to measure the number of vessel branches, number of vessels and total vessel length. This is performed by thresholding the image so that only CD31-stained vessels were detected, which the software then skeletonized to produce single pixel width vessels. From these, individual vessel length, total vessel length and number of vessel branch points were determined. The data were then exported to Excel to calculate mean and standard deviation for each data set. Basic statistics were carried out using a one-way ANOVA.

Row | Molecule | number of branches relative to the control group (20 μM suramin, p<0.05 one way ANOVA) | vessel formation relative to control wells (suramin 20 μM (FIG. 2)) | all three vessel parameters relative to the control wells (suramin 20 μM) | branching relative to the control group | vessel formation relative to control wells (VEGF 2 ng/ml (FIG. 4)) | all three vessel parameters relative to the control wells (VEGF 2 ng/ml)
1 | Cc1ccc(C(=O)Nc2ccc(S(=O)(=O)O)c3cc(S(=O)(=O)O)cc(S(=O)(=O)O)c23)cc1NC(=O)c1cccc(NC(=O)Nc2cccc(C(=O)Nc3cc(C(=O)Nc4ccc(S(=O)(=O)O)c5cc(S(=O)(=O)O)cc(S(=O)(=O)O)c45)ccc3C)c2)c1 [Suramin, suramin] | significant reduction | decrease in vessel formation | significant decrease | – | – | –
2 | VEGF | – | – | – | significant increase | increase in vessel formation | increase
